These results are taken from patent US20250257034A1, “INDOLE DERIVATIVES AS SEROTONERGIC AGENTS USEFUL FOR THE TREATMENT OF DISORDERS RELATED THERETO” (priority 2023, published 2025).

In general, pIC50 refers to −log10 of the IC50, conventionally taken in molar units. As usually defined, the pKi is −log10 of the Ki, conventionally taken in molar units.

The target in one experiment is 5-HT2B receptor (Homo sapiens, UniProt P41595). Kind of experiment: Human 5-HT2B radioligand binding assay ([3H]-LSD). Also on record: host or cells: cell membrane, dosed as 1 unit/well. The method, then:
The objective of this study was to evaluate the binding properties of test compounds on 5-HT2B.
1) The assay buffer was prepared following Table 25-below.
2) Eight doses of reference and test compounds starting from 10 mM stock solution as requested by 5-fold serial dilutions with 100% (v/v) DMSO.
3) UniFilter-96 GF/B plate was pretreated: • a. 50 μl/well of 0.5% (v/v) PEI to UniFilter-96 G F/B plates. The plates were sealed and incubated at 4° C. for 3 hrs. • b. After incubation, the plates were washed 3 times with ice-cold wash buffer (50 mM Tris, pH7.4).
4) Assay plate preparation: • a. Cell membrane was diluted with assay buffer and 330 μl/well added to 96 round deep well plates to reach a concentration of 1 unit/well. • b. Eight concentrations of reference or test compounds were prepared and 110 μl/well added to 96 round deep well plates. • c. [3H]-LSD was diluted with assay buffer to 5 nM (5×final concentration) and 110 μl/well was added to 96 round deep well plates.
5) The plate was centrifuged at 1000 rpm for 30 secs and then agitate at 600 rpm, R.T. for 5 min.
6) The plates were sealed and incubated at 37° C. for 90 min.
7) The incubation was stopped by vacuum filtration onto GF/B filter plates followed by 4 times washing with ice-cold wash buffer (50 mM Tris, pH7.4).
9) The filter plates were sealed and 40 μl/well of scintillation cocktail was added.
10) The plate was read using a Microbeta2 microplate counter.
For reference and test compounds, the results are expressed as % Inhibition, using the normalization equation: N=100-100x(U-C2)/(C1-C2), where U is the unknown value, Cl is the average of high controls, and C2 is the average of low controls. The IC50 is determined by fitting percentage of inhibition as a function of compound concentrations with Hill equation using XLfit.
1) The assay buffer was prepared following Table 54 below.
7) The incubation was stopped by vacuum filtration onto G F/B filter plates followed by 4 times washing with ice-cold wash buffer (50 mM Tris, pH7.4).
For reference and test compounds, the results are expressed as % Inhibition, using the normalization equation: N=100−100×(U−C2)/(C1−C2), where U is the unknown value, C1 is the average of high controls, and C2 is the average of low controls. The IC50 is determined by fitting percentage of inhibition as a function of compound concentrations with Hill equation using XLfit.

The target in the next experiment is T1, human 5-HT1A receptor (Homo sapiens, UniProt P08908).
T1 sequence (P08908 1-422): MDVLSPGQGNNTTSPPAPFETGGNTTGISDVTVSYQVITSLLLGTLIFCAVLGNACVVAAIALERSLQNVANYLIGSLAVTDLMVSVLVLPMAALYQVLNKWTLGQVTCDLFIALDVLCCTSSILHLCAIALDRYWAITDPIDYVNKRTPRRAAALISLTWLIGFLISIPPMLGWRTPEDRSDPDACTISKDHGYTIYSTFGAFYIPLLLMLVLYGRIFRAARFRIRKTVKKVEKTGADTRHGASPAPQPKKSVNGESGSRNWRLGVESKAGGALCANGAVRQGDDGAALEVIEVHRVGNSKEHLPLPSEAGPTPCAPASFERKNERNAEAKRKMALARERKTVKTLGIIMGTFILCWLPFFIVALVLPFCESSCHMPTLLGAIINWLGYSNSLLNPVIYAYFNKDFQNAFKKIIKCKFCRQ
The experiment can be described thus: Human 5-HT1A radioligand binding assay ([3H]-8-Hydroxy-DPAT). Also on record: expressed in transfected cells; host or cells: HTR1A&Gα15-CHO. The method, then: The objective of this study was to evaluate the binding properties of test compounds on 5-hydroxytryptamine receptor 1A (5-HT1A).
1. The assay buffer was prepared following Table 21 below.
2. 8 doses of reference and test compounds were prepared starting from 10 mM stock solution as required by 5-fold serial dilutions with 100% (v/v) DMSO.
3. UniFilter-96 GF/B plate was pretreated: • i. 50 μl/well of 0.5% (v/v) PEI was added to UniFilter-96 G F/B plates. The plates were sealed and incubated at 4° C. for 3 hrs. • ii. After incubation, the plates were washed 3 times with ice-cold wash buffer (50 mM Tris, pH7.4).
4. Assay plate was prepared: • i. Cell membrane was diluted with assay buffer and 100 μl/well was added to 96 round well plates to reach a concentration of 20 μg/well. • ii. 8 concentrations of reference or test compounds were prepared and 50 μl/well was added to 96 round deep well plates. • iii. [3H]-8-Hydroxy-DPAT was diluted with assay buffer to 2 nM (4×final concentration) and 50 μl/well was added to 96 round well plates.
5. The plate was centrifuged at 1000 rpm for 30 secs and then agitated at 600 rpm, R.T. for 5 min.
6. The plates were sealed, and the plate was incubated at 27° C. for 90 min.
7. The incubation was stopped by vacuum filtration onto GF/B filter plates followed by 4 times washing with ice-cold wash buffer (50 mM Tris, pH7.4).
9. The filter plates were sealed and 40 μl/well of scintillation cocktail was added.
10. The plate was read by using a Microbeta^2 microplate counter.
1. For reference and test compounds, the results were expressed as % Inhibition, using the normalization equation: N=100-100x(U-C2)/(C1-C2), where U is the unknown value, C1 is the average of high controls, and C2 is the average of low controls.
2. The IC50 was determined by fitting percentage of inhibition as a […] of compound concentrations with Hill equation using XLfit.
The objective of this study was to evaluate the binding properties of test compounds on 5-hydroxytryptamine receptor 1A (5-HTA).
1. The assay buffer was prepared following Table 50 below.
3. UniFilter-96 G FIB plate was pretreated: • i. 50 μl/well of 0.5% (v/v) PEI was added to UniFilter-96 G FIB plates. The plates were sealed and incubated at 4° C. for 3 hrs. • ii. After incubation, the plates were washed 3 times with ice-cold wash buffer (50 mM Tris, pH7.4).
6. The plates were sealed and the plate was incubated at 27° C. for 90 min.

The structures appear in SMILES notation. pIC50, pKi: −log10 of the molar value. Read-outs that look alike come from different tables or passages of the source.

Chain of 5-HT2B receptor (P41595 whole entry): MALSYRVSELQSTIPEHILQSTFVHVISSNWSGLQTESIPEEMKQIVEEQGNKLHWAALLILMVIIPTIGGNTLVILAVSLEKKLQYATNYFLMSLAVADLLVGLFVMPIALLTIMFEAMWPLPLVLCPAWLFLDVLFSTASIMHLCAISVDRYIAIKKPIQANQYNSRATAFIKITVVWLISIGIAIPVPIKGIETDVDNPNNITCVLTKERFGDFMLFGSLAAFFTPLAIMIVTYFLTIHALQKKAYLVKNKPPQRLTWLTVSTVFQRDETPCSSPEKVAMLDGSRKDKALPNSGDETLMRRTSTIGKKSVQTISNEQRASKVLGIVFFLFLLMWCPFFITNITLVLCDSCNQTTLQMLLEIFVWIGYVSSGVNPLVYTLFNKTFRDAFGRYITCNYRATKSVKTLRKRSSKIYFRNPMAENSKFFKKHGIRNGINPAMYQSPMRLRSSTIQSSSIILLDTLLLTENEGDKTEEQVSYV

As to `COc1ccc2[nH]cc(CCN(C)CCOC(F)F)c2c1` [Compound I-71, 2-(Difluoromethoxy)-N-(2-(5-methoxy-1H-indol-3-yl)ethyl)-N-methylethan-1-amine], the pIC50 at 5-HT2B receptor ([3H]-LSD displacement (Table 55), read-out: 5-HT2B, IC50) is 6.77; at human 5-HT1A receptor ([3H]-8-Hydroxy-DPAT displacement (Table 51), read-out: h5-HT1A, IC50), 7.29. The negative-log Ki (pKi) at 5-HT2B receptor ([3H]-LSD displacement (Table 55), read-out: 5-HT2B, Ki) is 7.05.

`COc1ccc2[nH]cc(CCN3CC[C@@H](OC(F)F)C3)c2c1` [(R) I-67, (R)-3-(2-(3-(Difluoromethoxy)pyrrolidin-1-yl)ethyl)-5-methoxy-1H-indole] gave a pIC50 on human 5-HT1A receptor of 7.66.

In the case of `CSc1ccc2[nH]cc(CCN(C(C)C)C(C)C)c2c1` [Compound I-17, N-Isopropyl-N-(2-(5-(methylthio)-1H-indol-3-yl)ethyl)propan-2-amine], at 5-HT2B receptor, the pIC50 is 6.66 and the pKi is 6.94. On human 5-HT1A receptor, this molecule gave a pIC50 of 7.34.

On to `CCN(CC)CCc1c[nH]c2ccc(SC)cc12` [Compound I-12, N,N-Diethyl-2-(5-(methylthio)-1H-indol-3-yl)ethan-1-amine], for which the pIC50 is 6.35 at 5-HT2B receptor and 8.70 on human 5-HT1A receptor. Further, the negative logarithm of the Ki (pKi) on 5-HT2B receptor was 6.63.

As for `COc1ccc2[nH]cc(CCN3CC[C@H](OC(F)F)C3)c2c1` [(S) I-67, (S)-3-(2-(3-(Difluoromethoxy)pyrrolidin-1-yl)ethyl)-5-methoxy-1H-indole], the pIC50 on human 5-HT1A receptor is 8.30.

On 5-HT2B receptor, `CSc1ccc2[nH]cc(CCN(C)C(C)C)c2c1` [Compound I-19, N-Methyl-N-(2-(5-(methylthio)-1H-indol-3-yl)ethyl)propan-2-amine] had a pIC50 of 6.56 and a pKi of 6.85. At human 5-HT1A receptor, the pIC50 was 7.77.

For the molecule `CN(C)CCc1c[nH]c2ccc(OCCOC(F)F)cc12` [Compound I-128, 2-(5-(2-(Difluoromethoxy)ethoxy)-1H-indol-3-yl)-N,N-dimethylethan-1-amine], on human 5-HT1A receptor, the pIC50 was 7.06.

At 5-HT2B receptor, `[2H]C([2H])([2H])N(CCc1c[nH]c2ccc(SC)cc12)C([2H])([2H])[2H]` [Compound I-1, N,N-Bis(methyl-d3)-2-(5-(methylthio)-1H-indol-3-yl)ethan-1-amine] had a pIC50 of 7.13 and a pKi of 7.41. Further, at human 5-HT1A receptor, the pIC50 was 8.41.

`COc1ccc2[nH]cc(CCN3CC[C@@H](OC)C3)c2c1` [(R) I-66, (R)-5-methoxy-3-(2-(3-methoxypyrrolidin-1-yl)ethyl)-1H-indole] showed a pIC50 on human 5-HT1A receptor of 7.66.

Regarding `CCN(C)CCc1c[nH]c2ccc(SC)cc12` [Compound I-13, N-Ethyl-N-methyl-2-(5-(methylthio)-1H-indol-3-yl)ethan-1-amine], the values for the pIC50 on 5-HT2B receptor and at human 5-HT1A receptor were 7.19 and 8.70, respectively. Further, the pKi on 5-HT2B receptor was 7.48.
